For experiment [1], the target named is T1, human PPARα receptor (Homo sapiens, UniProt Q07869).
T1 construct: transiently transfecting GAL4-hPPARα-LBD or GAL4-hPPARγ-LBD constructs; GAL4 (fusion partner); expressed in transfected cells; host or cells: HEK293 cells stably expressing 5×GAL4RE-Luciferase
T1 sequence (Q07869 239-466 limits assumed): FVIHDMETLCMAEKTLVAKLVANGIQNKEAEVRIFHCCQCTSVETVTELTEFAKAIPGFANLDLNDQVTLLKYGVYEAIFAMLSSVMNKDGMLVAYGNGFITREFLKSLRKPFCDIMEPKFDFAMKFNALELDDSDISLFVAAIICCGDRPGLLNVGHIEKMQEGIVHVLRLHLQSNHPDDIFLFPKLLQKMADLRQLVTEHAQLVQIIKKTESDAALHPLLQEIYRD
Briefly: GAL4-hPPARα-LBD functional transactivation (luciferase) assay in HEK293 cells. Type of experiment: cell-based. To be noted: for Emax: HEK293, maximum activity vs maximal activity of 100 μM fenofibric acid, read-out: PPARα % efficacy. Here is the method:
(§1) In vitro PPAR agonist functional assays were performed by transiently transfecting GAL4-hPPARα-LBD or GAL4-hPPARγ-LBD constructs respectively into HEK293 (human embryonic kidney) cells stably expressing 5×GAL4RE-Luciferase. Agonist binding results in an increase in luciferase enzyme activity which can be monitored by measuring luminescence upon cell lysing and the addition of luciferin substrate. EC50 values (μM) for PPARα or γ agonist activity were calculated as the concentration of the test ligand (μM) required for the half-maximal activity in HEK293 cells. The efficacy of a test ligand is defined as its maximum activity as compared to the maximal activity of the primary standards, 100 μM fenofibric acid for PPARα and 1 μM rosiglitazone for PPARγ, reported as % efficacy.

The target of experiment [2] is T2, human PPARγ receptor (Homo sapiens, UniProt P37231).
T2 construct: transiently transfecting GAL4-hPPARα-LBD or GAL4-hPPARγ-LBD constructs; GAL4 (fusion partner); expressed in transfected cells; host or cells: HEK293 cells stably expressing 5×GAL4RE-Luciferase
T2 sequence (P37231 238-503 limits assumed): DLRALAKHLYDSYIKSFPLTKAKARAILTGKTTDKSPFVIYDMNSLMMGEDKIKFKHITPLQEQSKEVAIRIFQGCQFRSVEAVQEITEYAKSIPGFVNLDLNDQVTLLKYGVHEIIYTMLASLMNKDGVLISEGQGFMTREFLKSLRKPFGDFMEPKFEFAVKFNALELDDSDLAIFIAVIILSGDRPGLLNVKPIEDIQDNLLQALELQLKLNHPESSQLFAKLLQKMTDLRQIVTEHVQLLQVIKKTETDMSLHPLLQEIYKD
The experiment is described as follows: GAL4-hPPARγ-LBD functional transactivation (luciferase) assay in HEK293 cells. Format: cell-based. To be noted: for Emax: HEK293, maximum activity vs maximal activity of 1 μM rosiglitazone, read-out: PPARγ % efficacy. As to the method: as §1

The test system of experiment [3] is high fat-fed hamster. The experiment is described as follows: High fat-fed hamster model: plasma triglyceride and cholesterol levels. Format: in vivo, Golden Syrian Hamster (Mesocricetus auratus). To be noted: 10 mg/kg orally dosed once daily for 14 days; high fat-fed male hamsters, fasted overnight. As to the method: It is known by one skilled in the art that the compounds of the present invention decrease plasma triglycerides and cholesterol levels at doses ≧10 mg/kg in rodent models of atherosclerosis and dyslipidemia (e.g. the high fat-fed hamster model). The typical administration of said compounds is expected to be between 0.1 to 2,000 mg/day in the clinical setting, and is preferably between 0.5 to 100 mg/day. (Reference for high fat-fed hamster model as an in vivo rodent model for anti-atheroslerosis efficacy: P-R Wang et al., Eur. Journ. of Pharm., 2001, 427, 285-293).
Male Golden Syrian Hamster (Mesocricetus auratus), 7-10 weeks of age and weighing 110-120 grams, were put on a high fat diet (D11953) for two weeks. The high fat diet was formulated by Research Diets, Inc, New Brunswick, N.J. using Purina 5001 as the base diet. Final composition (% by weight) of the diet is: 11.5% coconut oil, 11.5% corn oil, 0.5% cholesterol and 5% fructose. […] Plasma samples were obtained from hamsters fasted overnight (18 hours after last administration of compound) on day 22. The plasma triglyceride and cholesterol levels were determined and the percentage reductions in both parameters of drug-treated animals relative to vehicle-treated animals are shown in Table 2 below.

With `COC(=O)N(CC(=O)O)Cc1cccc(OCc2nc(-c3ccc(Cl)cc3)oc2C)c1` [Compound 1, Glycine, N-[[3-[[2-(4-chlorophenyl)-5-methyl-4-oxazolyl]methoxy]phenyl]methyl]-N-(methoxycarbonyl)-], in experiment [1], the Emax was determined as 81%. Also, in experiment [2], the Emax was 83%. In experiment [3], the “% Reduction in Plasma Total Cholesterol vs Vehicle-control group” value is reported as −38% and the “% Reduction in Plasma Triglycerides vs Vehicle-control group” value is given as −77%.

Consider `COC(=O)N(CC(=O)O)Cc1cc(OCc2nc(-c3ccc(Cl)cc3)oc2C)ccc1F` [Compound 2], for which the EC50 in experiment [1] (GAL4-hPPARα-LBD in HEK293 cells, 5×GAL4RE-Luciferase) worked out at 4 ± 1 nM; in experiment [2] (GAL4-hPPARγ-LBD in HEK293 cells, 5×GAL4RE-Luciferase) it was 4510 ± 1310 nM. Besides, the Emax in experiment [1] is 81%; in experiment [2], 67%. Also, the “% Reduction in Plasma Total Cholesterol vs Vehicle-control group” value in experiment [3] is listed as −60%. Further, the “% Reduction in Plasma Triglycerides vs Vehicle-control group” value in experiment [3] is given as −85%.

Broadly, the EC50 is the concentration giving half of the maximal effect. High values mean weaker potency, low ones greater potency.

The values above are taken from patent publication US7795291B2, “Substituted acid derivatives useful as anti-atherosclerotic, anti-dyslipidemic, anti-diabetic and anti-obesity agents and method” (Bristol-Myers Squibb Company, priority 2006, dated 2010).
